Experimental data reported in PMC9120017, “Inhibition mechanism of the chloride channel TMEM16A by the pore blocker 1PBC” (Nature Communications, 2022).
Where two headings read alike, the source gives them in different places.

Target: T1, wild-type mouse TMEM16A (Mus musculus, UniProt Q8BHY3)
T1 construct: expressed in transfected cells; host or cells: HEK293T
T1 sequence (Q8BHY3 1-960): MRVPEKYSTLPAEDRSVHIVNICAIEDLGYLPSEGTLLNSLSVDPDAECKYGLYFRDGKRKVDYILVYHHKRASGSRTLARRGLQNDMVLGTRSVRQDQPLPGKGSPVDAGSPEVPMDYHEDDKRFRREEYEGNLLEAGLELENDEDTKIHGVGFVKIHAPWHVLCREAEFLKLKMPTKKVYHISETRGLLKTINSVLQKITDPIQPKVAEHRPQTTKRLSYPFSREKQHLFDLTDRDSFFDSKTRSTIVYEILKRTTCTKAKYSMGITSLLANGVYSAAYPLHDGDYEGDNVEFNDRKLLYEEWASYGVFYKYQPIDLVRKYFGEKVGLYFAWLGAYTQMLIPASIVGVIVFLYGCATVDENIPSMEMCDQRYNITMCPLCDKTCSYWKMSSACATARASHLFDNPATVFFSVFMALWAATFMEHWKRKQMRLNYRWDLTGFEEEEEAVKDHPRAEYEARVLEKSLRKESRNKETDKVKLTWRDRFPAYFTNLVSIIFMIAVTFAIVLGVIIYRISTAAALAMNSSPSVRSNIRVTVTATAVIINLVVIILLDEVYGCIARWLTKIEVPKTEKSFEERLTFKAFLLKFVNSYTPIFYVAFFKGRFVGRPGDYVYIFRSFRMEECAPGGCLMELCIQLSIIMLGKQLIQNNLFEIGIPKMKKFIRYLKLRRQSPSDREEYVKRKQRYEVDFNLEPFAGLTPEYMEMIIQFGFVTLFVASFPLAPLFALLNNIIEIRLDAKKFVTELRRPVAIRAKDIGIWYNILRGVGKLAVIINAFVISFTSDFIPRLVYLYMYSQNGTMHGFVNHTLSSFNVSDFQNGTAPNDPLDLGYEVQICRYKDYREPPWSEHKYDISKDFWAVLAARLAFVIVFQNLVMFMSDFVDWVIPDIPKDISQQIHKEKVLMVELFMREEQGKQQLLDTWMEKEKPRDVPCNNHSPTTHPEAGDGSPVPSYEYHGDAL
Assay: Inside-out patch recording of 1PBC block, wild-type TMEM16A
Format: cell-based
Settings: for remaining activity at 3 µM / remaining activity at 10 µM: read-out: I/Imax
Experimental: HEK293T cells (ATCC CRL-1573) were maintained in Dulbecco’s modified Eagle’s medium (DMEM; Sigma-Aldrich) supplemented with 10 U ml^−1 penicillin, 0.1 mg ml^−1 streptomycin (Sigma-Aldrich), 2 mM L-glutamine (Sigma-Aldrich), and 10% FBS (Sigma-Aldrich) in a humidified atmosphere containing 5% CO2 at 37 °C. HEK293S GnTI^− cells (ATCC CRL-3022) were maintained in HyClone HyCell TransFx-H medium (GE Healthcare) supplemented with 10 U ml^−1 penicillin, 0.1 mg ml^−1 streptomycin, 4 mM L-glutamine, 0.15% poloxamer 188 (Sigma-Aldrich), and 1% FBS in an atmosphere containing 5% CO2 at 185 rpm at 37 °C. The ac splice variant of mouse TMEM16A (UniProt ID: Q8BHY3), mouse TMEM16B (UniProt ID: Q8CFW1), or mouse TMEM16F (UniProt ID: Q6P9J9) bearing a 3C cleavage site, a Venus YFP, a Myc tag, and a Streptavidin-binding peptide (SBP) downstream of the open reading frame in a modified pcDNA3.1 vector (Invitrogen) were used as described previously[21],[31]. Mutations were introduced using a modified QuikChange method[58] and were verified by sequencing.
HEK293T cells were transfected with 3–4 μg DNA per 6 cm Petri dish using the calcium phosphate co-precipitation method and were used within 24–96 h after transfection. Recordings were performed on inside-out patches excised from HEK293T cells expressing the construct of interest. Patch pipettes were pulled from borosilicate glass capillaries (O.D. 1.5 mm, I.D. 0.86 mm, Sutter Instrument) and were fire-polished with a microforge (Narishige) before use. Pipette resistance was typically 3–8 MΩ when filled with the recording solutions detailed below. Seal resistance was typically 4 GΩ or higher. Voltage-clamp recordings were made using Axopatch 200B, Digidata 1550, and Clampex 10.7 (Molecular Devices). Analog signals were filtered with the in-built 4-pole Bessel filter at 10 kHz and were digitized at 20 kHz. Solution exchange was achieved using a gravity-fed system through a theta glass pipette mounted on an ultra-fast piezo-driven stepper (Siskiyou). […] All recordings were performed at 20 °C.
A symmetrical ionic condition was used throughout. Stock solution with Ca^2+-EGTA contained 150 mM NaCl, 5.99 mM Ca(OH)2, 5 mM EGTA, and 10 mM HEPES at pH 7.40. Stock solution with EGTA contained 150 mM NaCl, 5 mM EGTA, and 10 mM HEPES at pH 7.40. Free Ca^2+ concentrations were adjusted by mixing the stock solutions at the required ratios calculated using the WEBMAXC program (http://web.stanford.edu/~cpatton/webmaxcS.htm). Patch pipettes were filled with the stock solution with Ca^2+-EGTA, which has a free Ca^2+ concentration of 1 mM. 1PBC (ChemBridge) stock was reconstituted in anhydrous DMSO (Sigma-Aldrich) at 100 mM and stored at −20 °C. Working solutions with 1PBC were prepared by serial dilution. Unless otherwise stated, experiments were performed at a saturating Ca^2+ concentration as shown in Supplementary Table 1 and the primary data were corrected for current rundown as described previously[21],[25].
Concentration-response relations, obtained from the ratio of the I-V plots before and after the application of the blocker, were fitted to the Hill equation,1 I/Imax=1/1+IC50/[blocker]^h where I/Imax is the normalized current responses, IC50 defines the concentration at which inhibition is at its half-maximum, and h is the Hill coefficient.

Steady-state current (normalized) (3 µM 1PBC, 60 mV, 2 µM Ca2+): 0.2233
remaining activity at 3 µM (3 µM 1PBC, 60 mV, 2 µM Ca2+): 40.5%
Steady-state current (normalized) (3 µM 1PBC, 80 mV, 2 µM Ca2+): 0.2697
remaining activity at 3 µM (3 µM 1PBC, 80 mV, 2 µM Ca2+): 38.1%
Steady-state current (normalized) (3 µM 1PBC, 100 mV, 2 µM Ca2+): 0.3173
remaining activity at 3 µM (3 µM 1PBC, 100 mV, 2 µM Ca2+): 37.3%
Steady-state current (normalized) (3 µM 1PBC, 120 mV, 2 µM Ca2+): 0.3753
remaining activity at 3 µM (3 µM 1PBC, 120 mV, 2 µM Ca2+): 38.6%
Steady-state current (normalized) (3 µM 1PBC, 140 mV, 2 µM Ca2+): 0.4543
remaining activity at 3 µM (3 µM 1PBC, 140 mV, 2 µM Ca2+): 41.8%
Steady-state current (normalized) (3 µM 1PBC, -20 mV, 2 µM Ca2+): -0.1133
remaining activity at 3 µM (3 µM 1PBC, -20 mV, 2 µM Ca2+): 58.9%
Steady-state current (normalized) (3 µM 1PBC, -40 mV, 2 µM Ca2+): -0.2482
remaining activity at 3 µM (3 µM 1PBC, -40 mV, 2 µM Ca2+): 63.9%
Steady-state current (normalized) (3 µM 1PBC, -60 mV, 2 µM Ca2+): -0.3977
remaining activity at 3 µM (3 µM 1PBC, -60 mV, 2 µM Ca2+): 68.6%
Steady-state current (normalized) (3 µM 1PBC, -80 mV, 2 µM Ca2+): -0.557
remaining activity at 3 µM (3 µM 1PBC, -80 mV, 2 µM Ca2+): 72.6%
Steady-state current (normalized) (3 µM 1PBC, -100 mV, 2 µM Ca2+): -0.718
remaining activity at 3 µM (3 µM 1PBC, -100 mV, 2 µM Ca2+): 75.6%
Steady-state current (normalized) (3 µM 1PBC, -120 mV, 2 µM Ca2+): -0.8735
remaining activity at 3 µM (3 µM 1PBC, -120 mV, 2 µM Ca2+): 78.1%
Steady-state current (normalized) (3 µM 1PBC, -140 mV, 2 µM Ca2+): -1.031
remaining activity at 3 µM (3 µM 1PBC, -140 mV, 2 µM Ca2+): 80.3%
Steady-state current (normalized) (10 µM 1PBC, 0 mV, 2 µM Ca2+): 0.0007397
remaining activity at 10 µM (10 µM 1PBC, 0 mV, 2 µM Ca2+): 30.3%
I/Imax scaled to open probability (10 µM 1PBC, 400 nM Ca2+, 80 mV): 0.1226
I/Imax scaled to open probability (10 µM 1PBC, 800 nM Ca2+, 80 mV): 0.1094
I/Imax scaled to open probability (10 µM 1PBC, 2 µM Ca2+, 80 mV): 0.1474
Steady-state current (normalized) (10 µM 1PBC, 20 mV, 2 µM Ca2+): 0.04925
remaining activity at 10 µM (10 µM 1PBC, 20 mV, 2 µM Ca2+): 25.3%
Steady-state current (normalized) (10 µM 1PBC, 40 mV, 2 µM Ca2+): 0.08188
remaining activity at 10 µM (10 µM 1PBC, 40 mV, 2 µM Ca2+): 21.7%
Steady-state current (normalized) (10 µM 1PBC, 60 mV, 2 µM Ca2+): 0.1024
remaining activity at 10 µM (10 µM 1PBC, 60 mV, 2 µM Ca2+): 18.6%
Steady-state current (normalized) (10 µM 1PBC, 80 mV, 2 µM Ca2+): 0.1202
remaining activity at 10 µM (10 µM 1PBC, 80 mV, 2 µM Ca2+): 17%
Steady-state current (normalized) (10 µM 1PBC, 100 mV, 2 µM Ca2+): 0.1383
remaining activity at 10 µM (10 µM 1PBC, 100 mV, 2 µM Ca2+): 16.3%
Steady-state current (normalized) (10 µM 1PBC, 120 mV, 2 µM Ca2+): 0.1588
remaining activity at 10 µM (10 µM 1PBC, 120 mV, 2 µM Ca2+): 16.3%
Steady-state current (normalized) (10 µM 1PBC, 140 mV, 2 µM Ca2+): 0.1862
remaining activity at 10 µM (10 µM 1PBC, 140 mV, 2 µM Ca2+): 17.1%
Steady-state current (normalized) (10 µM 1PBC, -20 mV, 2 µM Ca2+): -0.06795
remaining activity at 10 µM (10 µM 1PBC, -20 mV, 2 µM Ca2+): 35.3%
Steady-state current (normalized) (10 µM 1PBC, -40 mV, 2 µM Ca2+): -0.1586
remaining activity at 10 µM (10 µM 1PBC, -40 mV, 2 µM Ca2+): 40.9%
Structure (SMILES): N#Cc1c(C(F)(F)F)cc(O)n2c1nc1ccccc12 [1PBC]
